IC50 data for eight molecules are collected here from patent publication US11267786B2, “[3.3.1] bicyclo compounds as indoleamine 2,3-dioxygenase inhibitors” (Merck Sharp & Dohme Corp., priority 2018, dated 2022).

For the first assay, the target named is T1, IDO1 (Homo sapiens, UniProt P14902). Put plainly: IDO1 Cellular Assay in Hela Cells Stimulated with IFNγ. The class given is cell-based. The conditions noted are these: 100 ng/mL IFNγ, 300 uM L-tryptophan, about 48 hours, fluorescence readout. The method, then: IDO1 Cellular Assay in Hela Cells Stimulated with IFNγ
T1 sequence (P14902 whole entry): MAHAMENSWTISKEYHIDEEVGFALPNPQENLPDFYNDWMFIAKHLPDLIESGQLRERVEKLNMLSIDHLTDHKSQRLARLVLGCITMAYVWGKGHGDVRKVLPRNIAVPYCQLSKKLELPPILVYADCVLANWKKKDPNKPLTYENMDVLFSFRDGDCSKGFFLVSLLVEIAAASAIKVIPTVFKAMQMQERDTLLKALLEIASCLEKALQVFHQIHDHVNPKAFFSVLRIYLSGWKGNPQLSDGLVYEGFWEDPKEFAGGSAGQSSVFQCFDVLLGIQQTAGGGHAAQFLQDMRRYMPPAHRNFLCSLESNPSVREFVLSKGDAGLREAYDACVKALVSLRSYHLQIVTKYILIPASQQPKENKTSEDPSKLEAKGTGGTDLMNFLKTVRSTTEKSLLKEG
Hela cells were cultured in complete Hela culture medium (90% EMEM, 10% heat-inactivated fetal bovine serum) and expanded to about 1×10^9 cells. The cells were then collected and frozen down at 1×10^7 cells/vial in 1 mL frozen medium (90% complete Hela culture medium, 10% DMSO)
Compounds to be tested were serially diluted in ten 3-fold steps in DMSO starting from 10 mM DMSO stocks in Echo low volume plate(s). Compound dilutions or DMSO alone were then dispensed from the dilution plate(s) into Greiner black 384-well assay plate(s) (catalog #781086, 50 nL/well) using an Echo 550 acoustic liquid handler (Labcyte).
Frozen Hela cells were thawed and transferred into Hela assay medium (99% complete Hela culture medium, 1% Pen/Strep) with 20 mL medium/vial of cells. The cells were spun down at 250 g in a table top centrifuge for 5 min and suspended in same volume of Hela assay medium. The cells were then counted and adjusted to a density of 2×10^5 cells/ml in Hela assay medium. Sterile L-tryptophan were added to the cells with final concentration of 300 uM L-tryptophan. A small aliquot (2 mL/plate) of Hela cells were set aside and were not treated with IFNγ, to serve as the Max-E control.
Hela cells with and without IFNγ were dispensed to the respective wells of 384-well assay plates containing the compounds. The plates were incubated for about 48 hours at a 37° C., 5% CO2 incubator. Afterwards, 12 μL of 0.5 M methyl isonipecotate in dimethyl sulfoxide were added into each well and the plates were sealed and incubated at 37° C. without CO2 overnight. The plates were centrifuged for 1 min at 200×g. The resulting fluorescence was measured in a Spectramax plate reader (Molecular Devices) with a 400 nm excitation filter and a 510 nm emission filter.
The fluorescence intensity of each well was corrected for the background observed in wells with non-IFNγ-treated cells and was expressed as a fraction of the intensity observed in wells of IFNγ-treated cells and DMSO only. Potencies were calculated by linear least squares fit to the four parameter logistic IC50 equation.
Consider `O=C(Nc1ccc(Cl)cc1)C1CCC2CC1CCC2c1ccnc2ccc(F)cc12` (single isomer, unassigned) [Example 1, N-(4-chlorophenyl)-6-(6-fluoroquinolin-4-yl)bicyclo[3.3.1]nonane-2-carboxamide], for which the IC50 (usually the concentration that gives 50% inhibition) was determined as 2 nM. Same read-out and setting: with `O=C(Nc1ccc(Cl)cc1)C1CCC2CC1CCC2c1ccnc2ccc(F)cc12` (single isomer, unassigned) [Example 2, N-(4-chlorophenyl)-6-(6-fluoroquinolin-4-yl)bicyclo[3.3.1]nonane-2-carboxamide] the figure was 260 nM; with `O=C(Nc1ccc(Cl)cc1)C1CCC2CC1CCC2c1ccnc2ccc(F)cc12` (single isomer, unassigned) [Example 3, N-(4-chlorophenyl)-6-(6-fluoroquinolin-4-yl)bicyclo[3.3.1]nonane-2-carboxamide], 127 nM; with `O=C(Nc1ccc(Cl)cc1)C1CCC2CC1CCC2c1ccnc2ccc(F)cc12` (single isomer, unassigned) [Example 4, N-(4-chlorophenyl)-6-(6-fluoroquinolin-4-yl)bicyclo[3.3.1]nonane-2-carboxamide], 2510 nM.

The molecule `O=C(NC1CCC2CC1CCC2c1ccnc2ccc(F)cc12)c1ccc(Cl)cc1` (single isomer, unassigned) [Example 5, 4-Chloro-N-(6-(6-fluoroquinolin-4-yl)bicyclo[3.3.1]nonan-2-yl)benzamide] came in with an IC50 of 770 nM. Compared with the last molecule, the IC50 is about 3.3-fold lower.

`O=C(NC1CCC2CC1CCC2c1ccnc2ccc(F)cc12)c1ccc(Cl)cc1` (single isomer, unassigned) [Example 6, 4-Chloro-N-(6-(6-fluoroquinolin-4-yl)bicyclo[3.3.1]nonan-2-yl)benzamide]: half-maximal inhibition (IC50) was put at 1640 nM. This IC50 is about 2.1-fold higher than that of the molecule before. In the case of `O=C(NC1CCC2CC1CCC2c1ccnc2ccc(F)cc12)c1ccc(Cl)cc1` (single isomer, unassigned) [Example 7, 4-Chloro-N-(6-(6-fluoroquinolin-4-yl)bicyclo[3.3.1]nonan-2-yl)benzamide], 25 nM corresponded to half-maximal inhibition (IC50). This IC50 lies about 66-fold lower than the previous one. In the case of `O=C(NC1CCC2CC1CCC2c1ccnc2ccc(F)cc12)c1ccc(Cl)cc1` (single isomer, unassigned) [Example 8, 4-Chloro-N-(6-(6-fluoroquinolin-4-yl)bicyclo[3.3.1]nonan-2-yl)benzamide], the IC50 came to 2500 nM. Against the preceding molecule, the IC50 is about 100-fold higher.

Another assay concerns the target T1, IDO1. Put plainly: IDO1 Human Whole Blood Assay. The class given is cell-based. Details: Human whole blood was drawn in sodium heparin coated tubes from healthy internal donors; from tissue; host or cells: human whole blood from healthy donors, stimulated with LPS and IFNγ. To be noted: human whole blood stimulated with LPS and IFNγ 100 ng/mL, 18 h, kynurenine by LC/MS/MS. The method, then:
IDO1 Human Whole Blood Assay
Compounds to be tested were serially diluted in ten 3-fold steps in DMSO starting from 10 mM. 3 μL of compound dilutions or DMSO alone were then dispensed from the dilution plate into a polypropylene 96-well assay plate containing 97 μL of RPMI medium using an Echo 555 acoustic liquid handler (Labcyte). LPS and IFNγ were prepared in RPMI medium to a 10× of final conc. (1000 ng/mL), final concentration is 100 ng/mL.
Human whole blood was drawn in sodium heparin coated tubes from healthy internal donors. Two hundred forty μL of blood was transferred to each of the wells of a v-bottom 96 well plate. Thirty μL of compound was transferred from intermediate dilution plate, and incubated for 15 min. Thirty μL from stimulants was then transferred to blood and mixed thoroughly. Plate was covered with breathable membrane and incubated at 37° C. for overnight (18 h).
On day 2 isotope labeled standard of kynurenine and tryptophan was made in water at 10× concentration and 30 μL was added to the blood at 3 μM final concentration. […] Twenty μL of supernatant was carefully transferred to a 384 well plate containing 40 μL of 0.1% formic acid in water and analyzed by LC/MS/MS.
LC/MS/MS analyses were performed using Thermo Fisher's LX4-TSQ Quantum Ultra system. […] Compounds were titrated and IC50's were calculated by 4 parameter sigmoidal curve fitting formula.
Consider `O=C(Nc1ccc(Cl)cc1)C1CCC2CC1CCC2c1ccnc2ccc(F)cc12` (single isomer, unassigned) [Example 1, N-(4-chlorophenyl)-6-(6-fluoroquinolin-4-yl)bicyclo[3.3.1]nonane-2-carboxamide], for which the IC50 came out at 306 nM.
